Experimental data from patent US6590123B2, “Aminobenzoic acid derivatives having anti-tumorigenic activity, methods of making and using the same” (Mount Sinai School of Medicine of New York University, priority 1998, dated 2003).

Key:
Purified tubulin = assay: Inhibition of microtubule assembly by spectrophotometry, cell free system; assay type: biochemical, calf; details: 23 μM
Protocol: (§1) Purified tubulin was purchased from Sigma (St. Louis, Mo.). The effects of compounds 6, 7, 8, 9, paclitaxel and vinblastine on the microtubule assembly-disassembly process were determined using conditions recommended by the vendor. For assembly inhibition, 100 μl tubulin solution (500-600 μg protein/ml) was mixed gently with 400 μl reaction buffer containing 0.1 M MES (2-[N-morpholino]ethane sulfonic acid), 1 mM EGTA ([…]-N,N,N′,N′-tetraacetic acid), 0.5 mM MgCl2, 0.1 mM EDTA and 2.5 M gycerol at 37° C. Compounds 6, 7, 8, and 9 were next added to each sample at final concentrations of 10, 10, 1 and 1 μg/ml, respectively. After adding GTP to each sample to a final concentration of 1 mM, the microtubule assembly process was monitored by measuring the change of absorbance (OD) at 350 nm on a spectrophotometer (Ultrospec III, Pharmacia LKB, Uppsala, Sweden). A completed assembly process was observed within 40 min at room temperature. For disassembly inhibition, compounds 6, 7, 8, and 9 were added, at the above concentrations, to covets with repolymerized microtubules as described above, and incubated in melting ice. Changes of absorbance (OD) were monitored at 350 nm for 30 min until the OD values in the controls returned to the starting level, i.e., when the assembly-disassembly cycle was completed.
Purified tubulin from calf brain was purchased from Sigma (St. Louis, Mo.). The effects of 3-BAABU (3-bromoacetoamido, benzoylurea) on the microtubule assembly-disassembly process were determined using the conditions recommended by the vendor. For assembly inhibition, 100 μl tubulin solution (500-600 μg protein/ml) was mixed gently with 400 μl reaction buffer containing 0.1 M MES, 1 mM EGTA, 0.5 mM MgCl2, 0.1 mM EDTA and 2.5 M glycerol at 37° C. 3-BAABU, paclitaxel or vinblastine were then added to each sample cuvet at final concentrations of 3.3, 23 or 22 μM, respectively. After adding GTP to each sample to a final concentration of 1 mM, the microtubule assembly process was monitored by measuring the change of absorbance (OD) every 5 min at 350 nm on a spectrophotometer (Ultrospec III, Pharmacia LKB, Uppsala, Sweden). A completed assembly process was observed within 40 min at room temperature. For disassembly inhibition, 3-BAABU (3.3 μM), paclitaxel (23 μM) or vinblastine (22 μM) was added to a cuvet with repolymerized microtubules according to the method described above, and incubated in melting ice. Changes of absorbance (OD) were monitored at 350 nm for 30 min until the OD values in the controls returned to the starting level, i.e., completion of the assembly-disassembly cycle. Solvent solutions were used as control and had no effect in either the assembly or disassembly process.

[1] = test system: repolymerized microtubules; assay: Inhibition of microtubule disassembly by spectrophotometry, cell free system; assay type: biochemical, calf; details: 23 μM
Protocol: as §1, with “A completed assembly process was observed within 40 min at room temperature. For disassembly inhibition, compounds 6, 7, 8, and 9 were added, at the above concentrations, to covets with repolymerized microtubules as described above, and incubated in melting ice.” left out
Purified tubulin from calf brain was purchased from Sigma (St. Louis, Mo.). The effects of 3-BAABU (3-bromoacetoamido, benzoylurea) on the microtubule assembly-disassembly process were determined using the conditions recommended by the vendor. […]

[2] = test system: P338 leukemia lymphoma cells; assay: Survival and ED50 in mice implanted i.p. with P338 lymphoma; assay type: in vivo, male C57 BL/6JX mice
Protocol: FIG. 9 is a plot graph of the survival rate of male C57 BL/6JX mice implanted (i.p.) with P338 lymphoma, from 10 to 40 days after implantation. Two groups were used for the study: a control group of ten and a test group of ten that were treated with 20 mg/kg, (i.p.) of compound 8 at 2 and 8 days post-implantation.
(§2) The in vivo efficacy of 3-BAABU and 3-IAABU of the present invention was asssessed in a murine model, along with known anti-tubule agents, vinblastine and paclitaxel, as a comparative standard. Approximately 10^6 P338 leukemia lymphoma cells/mouse were implanted intra-peritoneal (i.p.) into male C57 BL/6JX mice (Jackson Laboratories, N.Y.). On days 2 and 8 post-implantation, drugs were administrated i.p. at the following concentration ranges: 3-BAABU from 16.6 to 116 μmole/kg, 3-IAABU from 14.4 to 101 μmole/kg, vinblastine from 2.2 to 20 μmole/kg and paclitaxel from 28 to 57 μmole/kg.
(§3) Both control and treated animals were examined for ascitic tumor burden daily for 35 days. […] Therapeutic index was defined as the ratio of LD50 (lethal dose) to ED50 (effective dose).

[3] = LD50 (lethal dose) in mice; details: mice, i.p.
Description: as §2, §3

Structure (SMILES): CC(=O)O[C@H]1C(=O)[C@@]2(C)[C@H]([C@H](OC(=O)c3ccccc3)[C@]3(O)C[C@H](OC(=O)[C@H](O)[C@@H](NC(=O)c4ccccc4)c4ccccc4)C(C)=C1C3(C)C)[C@]1(OC(C)=O)CO[C@@H]1C[C@@H]2O [Paclitaxel, reference compound]
- activity on microtubular polymerization (Purified tubulin): no activity
- inhibition of microtubule depolymerization [1]: significant inhibition
- Survival IL % ([2]; P338 Lymphoma (i.p.), 30 mg/kg ip on days 2 & 8): 10%
- Survival Mean ± SD ([2]; P338 Lymphoma (i.p.), 30 mg/kg ip on days 2 & 8, control 18.6 ± 1.1): 20.4 ± 3.2
- ED50 ([2]; P338 leukemia lymphoma i.p. in mice, drug i.p. on days 2 and 8): 37 µmol/kg
- LD50 [3]: 45 µmol/kg
